Like-named read-outs stand apart in the source and are kept apart here.
Columns and labels:
[1] = target: nucleocapsid (N) protein of SARS-CoV-2 (SARS-CoV-2-N) (Severe acute respiratory syndrome coronavirus 2, UniProt P0DTC9); assay type: binding; conditions: for Kd: read-out: dissociation constant (KD)
[2] = system: SARS-CoV-2; test: in vitro anti-SARS-CoV-2 virus infection assay in Vero E6 cells, viral yield in supernatant by qRT-PCR; assay type: cell-based
[3] = system: IFN-γ; test: LPS-induced IFN-γ production in PBMCs (ELISA); assay type: cell-based, human; conditions: both 3 μM and 1 μM; 6 h and 24 h
Protocol: (§1) Peripheral blood mononuclear cells (Allcells) were cultured at 37 °C at concentration 5% CO2 atmospheric on a 96-well plate in RPMI1640 cell growth medium (Gibico, Cat. 11875-093). For stimulation, PBMC cells were incubated with 1 μg/mL LPS (Sigma, Cat. L2880-25MG). To test whether CVL218 and olaparib can inhibit the production of IL-6, IL-10, IFN-γ, TNF-α, 1 μM and 3 μM concentrations of CVL218 or olaparib were added to cell culture medium for 6 and 24 h, respectively. The concentration of each cytokine was determined by ELISA using a commercial kit (BioLegend, USA).

[4] = biodistribution (tissue distribution) study in rats; assay type: in vivo, Sprague-Dawley rats; conditions: 20 mg/kg oral, 180 min time point
[5] = system: TNF-α; test: LPS-induced TNF-α production in PBMCs (ELISA); assay type: cell-based, human; conditions: both 3 μM and 1 μM; 6 h and 24 h
Protocol: as §1

[6] = system: SARS-CoV-2; test: indirect immunofluorescence / RT-PCR of virus nucleoprotein expression in infected Vero E6 cells; assay type: cell-based
[7] = 28-day toxicity and toxicokinetic study in cynomolgus monkeys; assay type: in vivo; conditions: for AUC0−24: dose not given
Protocol: Healthy male and female cynomolgus monkeys aged 3–4 years were purchased from Guangdong Landau Biotechnology, China. The animals were maintained in accordance with the Guide for the Care and Use of Laboratory Animals.
Cynomolgus monkey (5/sex/group) were selected using a computerized randomization procedure, and administered CVL218 by nasogastric feeding at dose levels of 0 (control), 5, 20, 80 mg/kg. Individual dose volumes were adjusted weekly based on body weight of monkeys. The monkeys were observed twice daily for viability/mortality and for any change in behavior, reaction to treatment or ill-health. Electrocardiograms, intraocular pressure, rectal temperature and body weight were recorded. For all the groups, […] of the animals were randomly selected and euthanized at day 28. The remaining animals were euthanized after a 28-day drug free period. Blood samples were taken before and at 0.5, 1, 2, 4, 8, and 24 h post-dose on days 1 and 28 of the treatment period. Pharmacokinetic evaluation was performed using a noncompartmental method (Phoenix, version 1.3, USA) and pharmacokinetic parameters were calculated for individual monkeys.

[8] = system: SARS-CoV-2; test: inhibitor combination assay in Vero E6 cells; assay type: cell-based
Protocol: The cytotoxicity of the tested drugs on Vero E6 cells was determined by the CCK8 assays (Beyotime, China). At 48 h post addition of the tested drugs, 20 μL CCK8 was added to each well and incubated at 37 °C for 1 h. Then optical density was measured at 450 nm. The 50% cytotoxic concentration (CC50) values were calculated using GraphPad Prism 5 (GraphPad Software, USA). Vero E6 cells were seeded into 96-well plates with a density of 5 × 10^4 cells/well for incubation in DMEM medium supplemented with 10% FBS for 16 h in an incubator with 5% CO2 at 37 °C, for cells to reach 80% confluent. Then, cell culture medium of each well was removed, and PBS was used to wash the cells once, before evaluating the antiviral efficacy of the tested drugs. Four duplicated wells were made for each dose of drugs, and the cells were pretreated with different doses of antiviral drugs diluted by the cell maintenance solution (50 μL per well) for 1 h. For the virus control and cell control wells, cell medium containing DMSO or only medium of 50 μL per well was added. Next, pretreated or untreated cells in each well were infected with the virus with a multiplicity of infection (MOI) of 0.05 for 2 h. […] Then culture supernatant per well was harvested and inactivated at 56 °C for 30 min to further extract and quantify viral RNA. […]

[9] = Phase I clinical trial, ascending dose studies; assay type: in vivo, human; conditions: doses as high as 1000 mg QD and 500 mg BID; preliminary Phase I data
[10] = system: IL-10; test: LPS-induced IL-10 production in PBMCs (ELISA); assay type: cell-based, human; conditions: for LPS-induced expression of IL-10: 3 μM
Protocol: as §1

[11] = system: Vero E6 cells; conditions: CCK8, 48 h
[12] = four-week toxicity and toxicokinetic study in rats; assay type: in vivo, Sprague-Dawley rats; conditions: for AUC0−24: dose not given
Protocol: Sprague-Dawley rats were purchased from Shanghai Laboratory Animal Center, China. The animals were grouped and housed in wire cages with no more than six per cage, under good laboratory conditions (temperature 25 ± 2 °C; relative humidity 50 ± 20%) and with dark and light cycle (12 h/12 h). Only healthy animals were used for experimental purpose. The pharmacokinetics and biodistribution study in Sprague-Dawley rats was approved by Center for Drug Safety Evaluation and Research, Shanghai Institute of Materia Medica, Chinese Academy of Sciences. A total of 144 Sprague-Dawley rats with each sex were used for toxicity study. Animals were randomly separated into four groups (18/sex/group). CVL218 was administered at doses of 20, 40, 60, and 160 mg/kg. For all the groups, 20 rats (10/sex/group) were randomly selected and euthanized at day 28, and their sections of various tissues and organs were obtained and frozen. Ten (5/sex/group) animals were euthanized after a 28-day drug free period, and their sections of tissues and organs were obtained and frozen. Six (3/sex/group) were euthanized after the blood samples were obtained. For pharmacokinetic and toxicity evaluation, clinical symptoms, mortality and the animals’ body weight were examined. Serum (0.5 mL) was collected to analyze toxicokinetics at different timepoints post drug administration. The plasma concentration-time data were analyzed using a noncompartmental method (Phoenix, version 1.3, USA) to derive the pharmacokinetic parameters.

[13] = system: IL-6; test: LPS-induced IL-6 production in PBMCs (ELISA); assay type: cell-based, human
Protocol: as §1

[14] = design: method as in earlier work; conditions: rats, 54 mg/kg oral; cited from earlier work
[15] = system: SARS-CoV-2; test: time-of-addition assay (full-time, entry, post-entry) in Vero E6 cells; assay type: cell-based; conditions: Severe acute respiratory syndrome coronavirus 2, Vero C1008, 14 h
[16] = design: method as in https://www.ema.europa.eu/en/medicines/human/EPAR/rubraca; conditions: ref https://www.ema.europa.eu/en/medicines/human/EPAR/rubraca; cited from earlier work
[17] = monkeys, nasogastric, daily for 28 days
[18] = rats, oral gavage once a day for 28 days
[19] = Severe acute respiratory syndrome coronavirus 2, Vero C1008, read-out: % Inhibition of SARS-CoV-2 replication

SMILES: CNCc1ccc(-c2cc3cc(F)cc(C(N)=O)c3o2)cc1 [CVL218]
- Kd ([1]; SPR, immobilized SARS-CoV-2-N): 3.1 µM
- % Inhibition of SARS-CoV-2 replication ([2]; 3 μM, Vero E6, MOI 0.05, qRT-PCR, preliminary test): 34.64%
- EC50 ([2]; Vero E6, MOI 0.05, 48 h, read-out: EC50 against SARS-CoV-2 replication): 5.19 µM
- LPS-induced concentration of IFN-γ [3]: significant decrease
- lung concentration compared to that in plasma [4]: 188 fold
- LPS-induced concentration of TNF-α [5]: significant decrease
- cytopathic effect in the infected cells ([6]; 25 μM): no obvious cytopathic effect
- expression level of N gene compared to DMSO ([6]; RT-PCR, 5, 15, 25 μM, 48 h post infection): Lower expression level
- virus nucleoprotein (NP) expression compared to DMSO treated cells ([6]; immunofluorescence microscopy, 5, 15, 25 μM, dose-response): significantly lower
- AUC0−24 ([7]; female monkeys, day 1): 19466 ng·h/mL
- AUC0−24 ([7]; female monkeys, day 28): 18774 ng·h/mL
- AUC0−24 ([7]; male monkeys, day 1): 16924 ng·h/mL
- AUC0−24 ([7]; male monkeys, day 28): 22912 ng·h/mL
- accumulation after consecutive 28 days of drug administration ([7]; monkeys, 5, 20 or 80 mg/kg): not apparent
- increase of exposure (AUC0−24) with dose ([7]; monkeys, 5, 20 or 80 mg/kg): approximately dose proportional
- body weight ([7]; monkeys, high-dose (80 mg/kg) group, reversed after 28-day recovery): slight decrease
- maximum tolerable dose (MTD) [7, 17]: 80 mg/kg
- no-observed adverse effect level (NOAEL) [7, 17]: 5 mg/kg
- inhibition rate against SARS-CoV-2 replication ([8]; CVL218 alone at 3.5 μM): 36%
- adverse events in human [9]: no Grade II and above adverse events
- tolerability in human [9]: well tolerated
- LPS-induced expression of IL-10 ([10]; after 6 h): not downregulated
- LPS-induced expression of IL-10 ([10]; after 24 h, p < 0.001): dramatically reduced
- CC50 [11]: 90.6 µM
- AUC0−24 ([12]; female rats, day 1): 7605 ng·h/mL
- AUC0−24 ([12]; female rats, day 28): 6657 ng·h/mL
- AUC0−24 ([12]; male rats, day 1): 9102 ng·h/mL
- AUC0−24 ([12]; male rats, day 28): 10253 ng·h/mL
- body weight versus control groups ([12]; rats, 20/60/160 mg/kg oral, 28 days + 28 days recovery): no significant difference
- maximum tolerable dose (MTD) [12, 18]: 160 mg/kg
- no-observed adverse effect level (NOAEL) [12, 18]: 20 mg/kg
- signs of toxicity after 28-day treatment period ([12]; rats, repeated dose): no apparent sign of toxicity
- LPS-induced production of IL-6 ([13]; 3 μM, after both 6 h and 24 h incubation, p < 0.01): significantly repressed

SMILES: CCOC(=O)C1=C[C@@H](OC(CC)CC)[C@H](NC(C)=O)[C@@H](N)C1 [Oseltamivir]
- inhibition at 3 µM [2, 19]: -13.7%

SMILES: CN(C)CC(=O)Nc1ccc2[nH]c(=O)c3ccccc3c2c1.Cl [PJ-34, N-(6-oxo-5,6-dihydrophenanthridin-2-yl)-N, N-dimethylacetamide. HCl]
- fold lower binding affinity than CVL218 [1]: about 22 fold
- Kd [1]: 68.1 µM

SMILES: CC(=O)N[C@H]1[C@H]([C@H](O)[C@H](O)CO)OC(C(=O)O)=C[C@@H]1N=C(N)N [Zanamivir]
- inhibition at 3 µM [2, 19]: -10.4%

SMILES: CCOC(=O)c1c(CSc2ccccc2)n(C)c2cc(Br)c(O)c(CN(C)C)c12 [arbidol]
- inhibition at 30 µM [2, 19]: 99%
- inhibition at 3 µM ([2]; Severe acute respiratory syndrome coronavirus 2, Vero C1008, 3 μM, Vero E6, MOI 0.05, qRT-PCR, preliminary test, read-out: % Inhibition of SARS-CoV-2 replication): 21.8%
- tissue distribution post administration [14]: mostly distributed in stomach and plasma

SMILES: NC(=O)c1nc(F)c[nH]c1=O [favipiravir, reference compound]
- inhibition rate against SARS-CoV-2 replication ([8]; favipiravir alone at 30 μM): no inhibitory activity

SMILES: O=C(c1cc(Cc2n[nH]c(=O)c3ccccc23)ccc1F)N1CCN(C(=O)C2CC2)CC1 [olaparib, reference compound]
- dissociation constant (KD) ([1]; SPR, immobilized SARS-CoV-2-N): no binding signal
- inhibition at 3.2 µM ([2]; Severe acute respiratory syndrome coronavirus 2, Vero C1008, 3.2 μM, Vero E6, MOI 0.05, qRT-PCR, preliminary test, read-out: % Inhibition of SARS-CoV-2 replication): 15.3%
- LPS-induced concentration of IFN-γ [3]: no significant inhibition
- LPS-induced concentration of TNF-α [5]: no significant inhibition
- LPS-induced stimulation of IL-10 ([10]; both 3 μM and 1 μM): no significant inhibition
- LPS-induced stimulation of IL-6 ([13]; both 3 μM and 1 μM): no significant inhibition

SMILES: CCC(CC)COC(=O)[C@H](C)N[P@](=O)(OC[C@H]1O[C@@](C#N)(c2ccc3c(N)ncnn23)[C@H](O)[C@@H]1O)Oc1ccccc1 [remdesivir]
- inhibition at 10 µM ([15]; read-out: % Inhibition, Entry): 5.86%
- inhibition at 10 µM ([15]; read-out: % Inhibition, Full-time): 92.9%
- inhibition at 10 µM ([15]; read-out: % Inhibition, Post-entry): 91.9%

SMILES: CNCc1ccc(-c2[nH]c3cc(F)cc4c3c2CCNC4=O)cc1 [rucaparib]
- accessibility in the lung tissue [16]: poor accessibility

Reference: article PMC8065335, “An integrative drug repositioning framework discovered a potential therapeutic agent targeting COVID-19” (Signal Transduction and Targeted Therapy, 2021)
